Values quoted from earlier work as cited in US9974792B2, “Methods for treating cancers” (Gilead Sciences, Inc., priority 2013, dated 2018).

Columns and labels:
CLL subjects = conditions: rituximab monotherapy; CLL subjects with similar median age and prior therapies; cited from earlier work
[1] = test system: subjects with B-cell malignancies, CLL/SLL; conditions: cited from earlier work

Row | Compound | 24-week PFS (CLL subjects) [%] | PFS ([1]; 11 subjects with CLL/SLL) [months] | overall progression-free survival (PFS) ([1]; participants treated in the phase 2 portion of the study) [weeks] | Response rate ([1]; six subjects with partial lymph-node reduction of at least 50%) [%]
1 | rituximab: monoclonal antibody (anti-CD20), monotherapy comparator in CLL subjects | 46 |  |  | 
2 | COc1cc(Nc2ncc(F)c(Nc3ccc4c(n3)N(COP(=O)(O)O)C(=O)C(C)(C)O4)n2)cc(OC)c1OC [fostamatinib] |  | 6.4 | 18 | 54.5
